The source made the active and inactive calls.

The values that follow come from ChEMBL document CHEMBL1201862, “PubChem BioAssay data set” (2004).

Test [1] concerns the target T1, Insulin-degrading enzyme (Homo sapiens, UniProt P14735).
T1 sequence (P14735 whole entry): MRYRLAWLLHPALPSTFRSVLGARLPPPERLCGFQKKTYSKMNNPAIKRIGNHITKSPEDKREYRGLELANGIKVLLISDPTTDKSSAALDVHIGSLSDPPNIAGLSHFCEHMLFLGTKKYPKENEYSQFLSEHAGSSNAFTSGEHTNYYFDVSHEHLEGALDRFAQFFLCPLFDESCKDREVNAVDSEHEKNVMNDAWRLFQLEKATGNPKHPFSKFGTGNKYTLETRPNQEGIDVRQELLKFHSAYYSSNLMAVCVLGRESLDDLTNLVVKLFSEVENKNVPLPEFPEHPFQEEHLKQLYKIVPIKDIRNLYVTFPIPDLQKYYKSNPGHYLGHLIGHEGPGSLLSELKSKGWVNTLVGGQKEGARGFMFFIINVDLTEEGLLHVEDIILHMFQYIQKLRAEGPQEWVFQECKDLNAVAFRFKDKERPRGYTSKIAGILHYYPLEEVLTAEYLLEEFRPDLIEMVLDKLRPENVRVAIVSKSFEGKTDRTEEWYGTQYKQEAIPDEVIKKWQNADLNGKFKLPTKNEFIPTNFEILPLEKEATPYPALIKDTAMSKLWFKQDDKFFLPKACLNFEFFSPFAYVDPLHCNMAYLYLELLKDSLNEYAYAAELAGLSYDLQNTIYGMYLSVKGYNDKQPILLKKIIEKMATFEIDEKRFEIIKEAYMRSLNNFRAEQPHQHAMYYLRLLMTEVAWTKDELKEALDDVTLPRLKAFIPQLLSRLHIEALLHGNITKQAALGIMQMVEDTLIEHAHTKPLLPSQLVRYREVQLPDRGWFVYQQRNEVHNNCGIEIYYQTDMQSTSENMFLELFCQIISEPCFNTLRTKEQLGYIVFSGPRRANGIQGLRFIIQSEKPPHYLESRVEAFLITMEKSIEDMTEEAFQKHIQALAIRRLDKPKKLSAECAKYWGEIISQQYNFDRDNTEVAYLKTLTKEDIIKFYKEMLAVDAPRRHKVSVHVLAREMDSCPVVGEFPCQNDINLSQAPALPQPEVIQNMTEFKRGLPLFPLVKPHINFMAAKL
The test is described as follows: activators of recombinant IDE enzyme, dose response, counter-screen for IDE activator project, biochemical, fluorescence polarization (AID 588681). A general note: The purpose of a counterscreen is to sort out artefacts and off-target activity.

Test [2] deals with T1, Insulin-degrading enzyme. The test is described as follows: activators of endogenous IDE in HEK cells, dose response, cell-based, fluorescence polarization (AID 588439). The class given is functional. On the technique in general: Polarisation of emitted light reports the rotation of a fluorescent probe.
For test [3], the system named is HEK293. In words: HEK cell cytotoxicity by LDH release, dose response, cytotoxicity control for IDE activator project, fluorescence, HEK cells (AID 588440).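 Further: cytotoxicity by LDH release measuring loss of membrane integrity.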 The class given is functional, cell-based. The following applies: Homo sapiens.
The test system of test [4] is HEK293. The test is described as follows: optical interference in Abeta FP readout, dose response, artefact control for IDE activator project, biochemical, fluorescence polarization (AID 588442). It counts as functional, cell-based. As to conditions: Homo sapiens.
Test [5] in a line: Luminescence Cell-Based Dose Retest to Confirm Inhibitors of Cancer Stem Cells. [Related pubchem assays (depositor defined):AID2717, AID2721]. It counts as functional. The following applies: Homo sapiens.
Test [6] has as its target Neurotensin receptor type 1 (Homo sapiens, UniProt P30989). The class given is functional.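 Further: Image-based confirmatory dose-response assay measuring agonist activity at NTR1; NTR1-expressing U2OS osteosarcoma cells imaged for beta-arrestin GFP spot formation; agonist potency where compounds increase beta-arrestin recruitment.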
Test [7] in a line: viability loss in Mcl1-dependent HMC-1-8 cells, dose response, selectivity assay for A1 inhibitor project, cell-based, luminescence, dry powder (AID 504415). The class given is functional. The following applies: Homo sapiens.
The nature of test [8]: HepG2 cell cytotoxicity, dose response, cytotoxicity control, ATP luminescence, cherry-pick, activator set 2 (AID 1053143). It counts as functional, cell-based.
Test [9] can be described thus: Luminescence Cell-Based Dose Confirmation HTS to Identify Activators of 5'UTR Stem-Loop Driven Alpha-Synuclein mRNA Translation in H4 Neuroglioblastoma Cells. [Related pubchem assays: 1829 (Project Summary), 1814 (Primary HTS)]. It counts as functional.
Test [10] is described as follows: Luminescence Cell-Based Dose Response HTS to Identify Activators of Luciferase Translation or Activity in H4 […] Cells. [Related pubchem assays: 1829 (Project Summary), 1814 (Primary HTS)]. The class given is functional.
Test [11] has as its system BJ. In words: cytotoxicity toward BJ-TERT fibroblasts, dose response, cell-based, RAS-independent, luminescence (AID 1933). It counts as functional. As to conditions: Homo sapiens.
The next test deals with H4. The test is described as follows: Luminescence Cell-Based Dose Response HTS to Identify Activators of 5'UTR Stem-Loop Driven Prion Protein mRNA Translation in H4 Neuroglioblastoma Cells. [Related pubchem assays: 1829 (Project Summary), 1814 (Primary HTS)]. The class given is functional. As to conditions: Homo sapiens.
The test system of test [12] is BJ. The test is described as follows: cells. It counts as functional, cell-based. The following applies: Homo sapiens.
Test [13] has as its system BJ. In words: cytotoxicity toward BJ-TERT-LT-ST fibroblasts, dose response, cell-based, RAS-independent, luminescence (AID 1935).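 Further: BJ fibroblasts immortalized with TERT plus LT and ST oncogenes.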 It counts as functional. The following applies: Homo sapiens.
Test [14] can be described thus: cytotoxicity toward DRD oncogenic fibroblasts, dose response, cell-based, non-viral oncogenic, luminescence (AID 1934). The class given is functional. As to conditions: Homo sapiens.
Test [15] in a line: cytotoxicity in HEK-293T cells, dose response, cytotoxicity control for TCR NF-kB inhibitor project, luminescence, T-cell screen hits (AID 489026).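 Further: cells exposed to compound about 14 hours before the viability readout.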 It counts as functional, cell-based.
For a further test, the system named is CHO. The test is described as follows: cytotoxicity in TLR9-MyD88 CHO cells, dose response, cytotoxicity control for TLR9-MyD88 binding inhibitor project, cell-based, luminescence (AID 588339).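 Further: CHO cells stably coexpressing TLR9 and MyD88 fusions from primary screen; compound exposure lasted 48 hours before viability readout.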 The class given is functional, hamster. The following applies: Cricetulus griseus.
Test [16] deals with T2, Replicative DNA helicase DnaB (Mycobacterium tuberculosis, UniProt P9WMR3).
T2 sequence (P9WMR3 whole entry): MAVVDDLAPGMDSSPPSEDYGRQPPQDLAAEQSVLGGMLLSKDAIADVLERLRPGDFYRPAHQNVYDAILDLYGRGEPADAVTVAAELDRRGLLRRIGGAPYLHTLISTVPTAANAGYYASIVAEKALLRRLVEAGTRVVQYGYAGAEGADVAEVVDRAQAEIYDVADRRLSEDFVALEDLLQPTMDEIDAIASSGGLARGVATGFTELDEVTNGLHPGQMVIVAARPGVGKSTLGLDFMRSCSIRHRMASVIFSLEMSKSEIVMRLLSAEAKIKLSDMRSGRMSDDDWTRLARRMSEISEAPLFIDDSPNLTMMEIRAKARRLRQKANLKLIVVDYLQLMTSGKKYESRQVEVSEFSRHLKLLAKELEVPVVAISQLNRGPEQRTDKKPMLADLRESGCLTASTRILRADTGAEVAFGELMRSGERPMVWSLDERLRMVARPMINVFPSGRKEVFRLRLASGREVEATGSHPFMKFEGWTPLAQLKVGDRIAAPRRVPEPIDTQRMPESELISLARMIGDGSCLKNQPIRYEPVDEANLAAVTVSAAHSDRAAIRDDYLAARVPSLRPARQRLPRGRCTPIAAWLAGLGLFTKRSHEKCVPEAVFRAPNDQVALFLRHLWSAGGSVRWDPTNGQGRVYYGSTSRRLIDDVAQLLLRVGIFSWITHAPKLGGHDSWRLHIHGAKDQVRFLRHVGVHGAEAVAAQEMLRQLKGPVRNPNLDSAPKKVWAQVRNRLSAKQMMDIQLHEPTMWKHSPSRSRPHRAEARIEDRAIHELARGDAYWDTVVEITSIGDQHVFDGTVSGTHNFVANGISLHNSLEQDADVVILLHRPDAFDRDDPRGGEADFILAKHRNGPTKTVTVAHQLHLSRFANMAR
The test is described as follows: DnaB intein splicing inhibitors, dose response, biochemical, cell-free fluorescence (AID 449749). It counts as functional.

For test [17], the system named is BJ. In words: cytotoxicity toward Ras-transformed BJeLR fibroblasts, dose response, cell-based, alamar blue fluorescence, cherrypicked samples (AID 2631).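 Further: confirmatory dose-response assay in RAS-dependent BJ fibroblasts engineered with TERT, LT and ST, with cytotoxicity read by fluorescence.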 The class given is functional. The following applies: Homo sapiens.
The next test concerns the target T3, Protein RecA (Mycobacterium tuberculosis, UniProt P9WHJ3).
T3 sequence (P9WHJ3 whole entry): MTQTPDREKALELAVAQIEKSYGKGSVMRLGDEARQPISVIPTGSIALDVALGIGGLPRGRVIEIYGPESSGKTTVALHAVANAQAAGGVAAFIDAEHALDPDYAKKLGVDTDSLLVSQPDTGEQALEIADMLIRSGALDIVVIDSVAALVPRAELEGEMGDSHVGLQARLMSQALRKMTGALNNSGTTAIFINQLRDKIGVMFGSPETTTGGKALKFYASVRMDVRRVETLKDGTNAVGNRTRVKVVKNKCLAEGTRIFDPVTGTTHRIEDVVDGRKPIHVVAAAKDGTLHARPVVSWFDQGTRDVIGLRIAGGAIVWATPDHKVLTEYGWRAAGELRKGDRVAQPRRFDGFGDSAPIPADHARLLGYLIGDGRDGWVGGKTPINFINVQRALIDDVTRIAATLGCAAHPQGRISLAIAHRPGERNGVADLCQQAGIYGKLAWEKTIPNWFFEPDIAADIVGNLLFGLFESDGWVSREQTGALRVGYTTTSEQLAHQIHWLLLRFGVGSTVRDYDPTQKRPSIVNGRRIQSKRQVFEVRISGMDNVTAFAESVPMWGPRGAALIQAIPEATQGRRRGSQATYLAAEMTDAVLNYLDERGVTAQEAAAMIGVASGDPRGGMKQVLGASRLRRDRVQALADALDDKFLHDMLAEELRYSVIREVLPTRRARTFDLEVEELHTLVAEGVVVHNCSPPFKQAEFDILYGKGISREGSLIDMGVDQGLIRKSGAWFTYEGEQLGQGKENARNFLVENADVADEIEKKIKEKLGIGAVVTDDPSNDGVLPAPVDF
The test is described as follows: Fluorescence Cell-Free Homogeneous Dose Retest to Identify Inhibitors of RecA-Intein Splicing Activity. [Related pubchem assays (depositor defined):AID2097, AID2223, AID489010, AID492950]. The class given is functional.

Test [18] deals with T4, Beta Lactamase (Pseudomonas aeruginosa, UniProt Q932Y6). The test is described as follows: beta-lactamase reporter inhibitor potency, dose response, artefact control for TLR9-MyD88 binding inhibitor project, BLA reporter cells, FRET fluorescence (AID 588341).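 Further: cell based assay in CHO-K1 cells stably expressing beta-lactamase.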 The class given is cell-based.
T4 sequence (Q932Y6 whole entry): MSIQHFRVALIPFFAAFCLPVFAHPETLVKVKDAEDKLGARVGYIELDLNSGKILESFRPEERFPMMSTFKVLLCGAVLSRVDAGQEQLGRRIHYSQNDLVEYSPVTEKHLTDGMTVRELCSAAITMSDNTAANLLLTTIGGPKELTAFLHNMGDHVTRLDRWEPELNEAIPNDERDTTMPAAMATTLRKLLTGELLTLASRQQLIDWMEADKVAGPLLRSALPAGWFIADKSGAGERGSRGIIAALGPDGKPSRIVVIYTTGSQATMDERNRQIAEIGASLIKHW
Test [19] in a line: Shn3 3'UTR reporter inhibitors, dose response, cell-based, Clone20 osteoblasts, firefly luciferase, cherry-picked (AID 624132).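 Further: firefly luciferase luminescence from reporter carrying the Shn3 3'UTR in osteoblasts.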 It counts as functional.
Test [20] in a line: HepG2 cell cytotoxicity, dose response, cytotoxicity control for Shn3 inhibitor project, CellTiter-Glo, cherry-picked (AID 624134). It counts as functional, cell-based. (In general: ATP-based viability assays read luminescence as a measure of living cells.)
Test [21] can be described thus: control 3'UTR Renilla luciferase suppression, dose response, counter-screen for Shn3 inhibitor project, cell-based, Clone20-Shn3RL, cherry-picked (AID 624133). It counts as functional.
The nature of test [22]: Fluorescence-based cell-based high throughput dose response assay for inhibitors of the interaction of nucleotide-binding oligomerization domain containing 2 (NOD2) and the receptor-interacting serine-threonine kinase 2 (RIPK2). It counts as functional. The following applies: Homo sapiens.
For test [23], the target named is T4, Beta Lactamase. The test is described as follows: beta-lactamase reporter inhibitor potency, dose response, artefact control for NOD2-RIPK2 interaction inhibitor project, BLA reporter cells, FRET fluorescence (AID 651552). It counts as functional, cell-based.
A short description of test [24]: reduction of endogenous Shn3 mRNA, dose response, qPCR, Clone20 cells, cherry-pick (AID 743415). The class given is functional, cell-based.
Test [25] in a line: reduction of Shn3 3'UTR firefly luciferase signal, dose response, Schnurri-3 inhibitor project, cell-based, Clone20 osteoblasts, cherry-pick, set 2 (AID 720490).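 Further: actives lower the luminescence signal as inhibitors.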 It counts as functional.
The nature of test [26]: inhibitors of control Renilla luciferase reporter, dose response, counter-screen for Shn3 3'UTR targeting project, Clone20-Shn3RL cells, dual-Glo, cherry-pick, set 2 (AID 720724). It counts as functional, cell-based. As to conditions: Dual-Go Shn3RL.

Chain of Neurotensin receptor type 1 (P30989 whole entry): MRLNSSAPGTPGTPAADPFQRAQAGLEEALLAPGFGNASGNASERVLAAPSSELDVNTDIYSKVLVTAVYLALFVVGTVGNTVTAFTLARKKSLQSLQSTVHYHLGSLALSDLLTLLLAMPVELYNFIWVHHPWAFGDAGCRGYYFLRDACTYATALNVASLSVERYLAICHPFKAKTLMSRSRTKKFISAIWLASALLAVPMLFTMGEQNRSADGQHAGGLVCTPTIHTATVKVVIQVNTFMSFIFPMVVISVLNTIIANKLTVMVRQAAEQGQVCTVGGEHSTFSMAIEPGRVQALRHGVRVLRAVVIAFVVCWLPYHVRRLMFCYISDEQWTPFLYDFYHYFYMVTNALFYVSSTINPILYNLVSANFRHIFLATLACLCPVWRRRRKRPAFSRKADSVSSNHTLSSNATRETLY

The EC50 is the concentration giving half of the maximal effect. The term IC50 denotes the concentration needed to halve the response being measured. Regarding `CCN(CC(=O)Nc1ccc(NC(C)=O)cc1)C(=O)c1cc(CN2C(=O)c3ccccc3C2=O)ccc1OC`, the EC50 on Insulin-degrading enzyme [1], on Insulin-degrading enzyme [2] and in the test on HEK293 [4] was > 54.7 µM (inactive) each time. In addition, the IC50 in the test on HEK293 [3] was > 89.2 µM (inactive).

Broadly, the AC50 is the concentration giving half of the maximal activity seen. In the case of `Cc1ccc(Sc2c([N+](=O)[O-])c(=O)n(C)c3ccccc23)cc1`, the figures for the half-maximal activity concentration (AC50) in test [5], in test [7] and in [8] were 3.18 µM (active), 19.3 µM (active) and 26 µM (active), respectively. In [6], the EC50 is 26 µM (inactive).

On to `CCOC(=O)C1CCN(S(=O)(=O)c2c(Cl)ccc3nonc23)CC1`, for which the 50% effective concentration (EC50) is > 120 µM (not active) in test [9]; > 120 µM (not active) in [10]; 2.73 µM (inconclusive) in the test with BJ [11]; > 120 µM (not active) in the test with H4; 6.08 µM (inconclusive) in the test with BJ [12]; 2.84 µM (inconclusive) in the test with BJ [13]. For the same compound, the EC50 in test [14] was 2.75 µM (active); in the test with BJ [17], 0.318 µM (active); on Protein RecA, 14.4 µM (active). The IC50 in test [15] is > 80 µM (inactive); in the test on CHO it was 2.42 µM (active); on Beta Lactamase [18], 21.2 µM (inactive); in test [22] it was 1.12 µM (active); at Beta Lactamase [23], 26.8 µM (inactive). Further, the concentration at half-maximal activity (AC50) was 5.07 µM (active) in test [16]; 0.919 µM (active) in [19]; 12.2 µM (active) in [20]; 4.78 µM (active) in [21]; 3.36 µM (active) in test [24]; 1.97 µM (active) in test [25]. For the same compound, the AC50 in test [26] was 1.77 µM (active).
